Measurements: patent US9718785B2, “1,3-Disubstituted cyclopentane derivatives” (MERCK PATENT GMBH, priority 2013, dated 2017)

Target: T1, human recombinant full-length fatty acid synthase (FASN) (Homo sapiens, UniProt P49327)
T1 construct: 40 nM human recombinant full-length fatty acid synthase (produced in-house in SF9 cells); made in house; host or cells: SF9 insect cells
Assay: Biochemical activity testing of human fatty acid synthase FASN (NADPH fluorescence intensity enzyme assay)
Settings: human recombinant FASN, enzyme assay
From the text: Biochemical Activity Testing of Human Fatty Acid Synthase FASN
Fatty acid synthase FASN is a multifunctional enzyme with seven catalytic activities thereby synthesising long chain fatty acids especially palmitoyl-CoA in the presence of co-factor NADPH starting from the substrates acetyl-CoA and malonyl-CoA. The reductive synthesis is realized by the oxidation of NADPH to NADP. Since NADPH has a high fluorescence intensity quantum yield compared to NADP with excitation at 340 nm and emission at 460 nm, the reaction can be monitored via the decrease in fluorescence intensity. The biochemical FASN activity testing was performed as 384 well two-time-point kinetic fluorescence intensity assay format in Greiner low volume medium binding 384-well black microtiter plates in a total assay volume of 8 μl and was used for high throughput screen. In each well 3 μl 40 nM human recombinant full-length fatty acid synthase (produced in-house in SF9 cells) were dispensed in the following assay buffer: 50 mM potassium phosphate buffer pH 7.0, 0.005% (w/v) BSA, 2 mM Glutathione, 0.02% Tween-20. Then 2 μl of 200 μM NADPH in assay buffer were added, followed by the addition of the test compounds in 10 dilution concentrations starting with 30 μM (final concentration) to get a final DMSO content of 1% (v/v). The mixture was incubated for at least 15 min at room temperature. After the pre-incubation the enzymatic reaction was started by the addition of 2 μl substrate solution (80 μM acetyl-CoA, 240 μM malonyl-CoA). A first fluorescence intensity measurement (time point one) was performed with an Envision multimode reader (Perkin Elmer LAS Germany GmbH) at excitation wavelength 340 nm (lamp mode) and emission wavelength 460 nm. The reaction was incubated for 30 minutes at room temperature. After this the fluorescence intensity was measured again in the Envision using the same parameters as described above (second time point measurement). The data were analysed by subtracting the first time point measurement value from the second time point measurement value (after the enzymatic reaction). The differences of the emission signals were determined. These reflect directly the conversion rate of NADPH. The full value used was the inhibitor-free reaction. A pharmacological zero value was used like GSK837149A (Sigma-Aldrich) in a final concentration of 5-10 μM. The inhibitory values (IC50) were determined using either the program Symyx Assay Explorer® or Condosseo® from GeneData.

T1 sequence (P49327 whole entry): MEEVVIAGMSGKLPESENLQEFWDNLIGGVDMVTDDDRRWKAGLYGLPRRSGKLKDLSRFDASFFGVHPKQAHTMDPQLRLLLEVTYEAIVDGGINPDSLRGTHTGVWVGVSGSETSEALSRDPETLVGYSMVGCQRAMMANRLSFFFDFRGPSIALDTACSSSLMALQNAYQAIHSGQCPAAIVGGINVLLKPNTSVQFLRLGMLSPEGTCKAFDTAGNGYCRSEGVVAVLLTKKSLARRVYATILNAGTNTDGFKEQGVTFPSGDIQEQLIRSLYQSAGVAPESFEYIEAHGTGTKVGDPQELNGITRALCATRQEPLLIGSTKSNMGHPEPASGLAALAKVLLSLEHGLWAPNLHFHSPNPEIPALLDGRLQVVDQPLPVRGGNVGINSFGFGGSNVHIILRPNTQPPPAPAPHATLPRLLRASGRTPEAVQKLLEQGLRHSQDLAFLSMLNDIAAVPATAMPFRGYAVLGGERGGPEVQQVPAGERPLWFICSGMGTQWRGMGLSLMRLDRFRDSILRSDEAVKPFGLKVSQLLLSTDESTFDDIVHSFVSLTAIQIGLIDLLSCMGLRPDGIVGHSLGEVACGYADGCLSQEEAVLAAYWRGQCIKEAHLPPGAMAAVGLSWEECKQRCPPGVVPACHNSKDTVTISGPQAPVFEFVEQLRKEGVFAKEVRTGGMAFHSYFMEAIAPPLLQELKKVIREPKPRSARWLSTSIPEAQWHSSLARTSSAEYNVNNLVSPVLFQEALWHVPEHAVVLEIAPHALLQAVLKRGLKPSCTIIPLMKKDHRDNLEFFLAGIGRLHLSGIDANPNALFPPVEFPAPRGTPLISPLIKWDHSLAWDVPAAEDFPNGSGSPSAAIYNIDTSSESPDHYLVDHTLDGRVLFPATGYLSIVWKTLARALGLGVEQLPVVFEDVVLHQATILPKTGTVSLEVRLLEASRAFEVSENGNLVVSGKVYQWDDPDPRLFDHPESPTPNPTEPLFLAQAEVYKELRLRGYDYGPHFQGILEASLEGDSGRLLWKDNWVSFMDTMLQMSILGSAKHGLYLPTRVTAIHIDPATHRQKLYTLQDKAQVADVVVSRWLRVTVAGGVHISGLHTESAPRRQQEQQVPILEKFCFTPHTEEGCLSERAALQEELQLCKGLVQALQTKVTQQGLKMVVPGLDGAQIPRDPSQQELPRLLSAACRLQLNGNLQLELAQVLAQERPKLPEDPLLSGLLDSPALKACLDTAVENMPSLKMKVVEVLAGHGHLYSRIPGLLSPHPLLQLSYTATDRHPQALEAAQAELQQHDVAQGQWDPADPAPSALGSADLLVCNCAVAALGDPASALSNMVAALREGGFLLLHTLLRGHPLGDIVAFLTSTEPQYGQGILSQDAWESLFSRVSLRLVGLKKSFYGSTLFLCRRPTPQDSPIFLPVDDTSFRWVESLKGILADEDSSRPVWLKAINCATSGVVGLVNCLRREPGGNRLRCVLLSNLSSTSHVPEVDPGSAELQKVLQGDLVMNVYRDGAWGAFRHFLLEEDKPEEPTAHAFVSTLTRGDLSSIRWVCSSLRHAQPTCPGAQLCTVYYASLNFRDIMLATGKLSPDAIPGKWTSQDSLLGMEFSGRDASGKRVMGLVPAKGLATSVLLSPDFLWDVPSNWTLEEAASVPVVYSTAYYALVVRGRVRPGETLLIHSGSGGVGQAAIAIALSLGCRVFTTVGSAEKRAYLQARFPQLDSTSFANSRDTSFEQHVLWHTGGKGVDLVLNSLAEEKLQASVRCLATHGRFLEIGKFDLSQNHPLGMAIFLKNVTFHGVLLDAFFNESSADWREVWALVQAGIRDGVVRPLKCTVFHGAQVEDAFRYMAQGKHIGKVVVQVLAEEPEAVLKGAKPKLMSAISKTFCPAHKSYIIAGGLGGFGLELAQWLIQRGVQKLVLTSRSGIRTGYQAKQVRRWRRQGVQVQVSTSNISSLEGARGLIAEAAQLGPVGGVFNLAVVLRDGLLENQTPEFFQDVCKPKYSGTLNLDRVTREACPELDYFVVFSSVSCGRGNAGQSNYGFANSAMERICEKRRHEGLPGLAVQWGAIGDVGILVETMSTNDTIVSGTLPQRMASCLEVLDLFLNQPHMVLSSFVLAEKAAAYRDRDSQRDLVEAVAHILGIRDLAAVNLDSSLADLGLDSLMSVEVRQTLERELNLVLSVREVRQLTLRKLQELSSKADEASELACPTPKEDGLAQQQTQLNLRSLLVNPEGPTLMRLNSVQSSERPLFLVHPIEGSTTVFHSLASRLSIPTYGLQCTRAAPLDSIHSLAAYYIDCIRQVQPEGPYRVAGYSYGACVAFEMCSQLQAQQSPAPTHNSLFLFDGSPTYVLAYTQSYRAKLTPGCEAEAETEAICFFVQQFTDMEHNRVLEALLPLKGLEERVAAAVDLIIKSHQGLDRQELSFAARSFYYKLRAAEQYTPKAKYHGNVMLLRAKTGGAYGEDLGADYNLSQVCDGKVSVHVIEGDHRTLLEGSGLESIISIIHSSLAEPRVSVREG

IC50 [nM]	SMILES
< 300	CCNC(=O)[C@H]1CC[C@@H](n2cnnc2-c2ccc(-c3nc4ccccc4o3)cc2)C1 [Compound A29, (1S,3R)-3-[3-(4-benzoxazol-2-yl-phenyl)-[1,2,4]triazol-4-yl]-cyclopentanecarboxylic acid ethylamide]
< 300	CCNC(=O)[C@H]1CC[C@@H](n2cnnc2-c2ccc(-c3ccc4cc[nH]c4c3)cc2)C1 [Compound A30, (1S,3R)-3-{3-[4-(1H-indol-6-yl)-phenyl]-[1,2,4]triazol-4-yl}-cyclopentanecarboxylic acid ethylamide]
< 300	CCNC(=O)[C@H]1CC[C@@H](n2cnnc2-c2ccc(-c3ccc(Cl)cc3)cc2)C1 [Compound A31, (1S,3R)-3-[3-(4′-chloro-biphenyl-4-yl)[1,2,4]triazol-4-yl]-cyclopentanecarboxylic acid ethylamide]
< 300	CCNC(=O)[C@H]1CC[C@@H](n2cnnc2-c2ccc(-c3ccc(C#N)cc3)cc2)C1 [Compound A32, (1S,3R)-3-[3-(4′-cyano-biphenyl-4-yl)-[1,2,4]triazol-4-yl]-cyclopentanecarboxylic acid ethylamide]
< 300	CCNC(=O)[C@H]1CC[C@@H](n2cnnc2-c2ccc(-c3nc4ccccc4s3)cc2)C1 [Compound A33, (1S,3R)-3-[3-(4-benzothiazol-2-yl-phenyl)-[1,2,4]triazol-4-yl]-cyclopentanecarboxylic acid ethylamide]
< 300	CCNC(=O)[C@H]1CC[C@@H](n2cnnc2-c2ccc(-c3cccc4[nH]ncc34)cc2)C1 [Compound A35, (1S,3R)-3-{3-[4-(1H-indazol-4-yl)-phenyl]-[1,2,4]triazol-4-yl}-cyclopentanecarboxylic acid ethylamide]
< 300	CCC(=O)N[C@H]1CC[C@@H](n2cnnc2-c2ccc(-c3nc4ccccc4o3)cc2)C1 [Compound A37, N-{(1S,3R)-3-[3-(4-benzoxazol-2-yl-phenyl)-[1,2,4]triazol-4-yl]-cyclopentyl}-propionamide]
< 300	CCC(=O)N[C@H]1CC[C@@H](n2cnnc2-c2ccc(-c3ccc(Cl)cc3)cc2)C1 [Compound A39, N-{(1S,3R)-3-[3-(4′-chloro-biphenyl-4-yl)-[1,2,4]triazol-4-yl]-cyclopentyl}-propionamide]
< 300	CCC(=O)N[C@H]1CC[C@@H](n2cnnc2-c2ccc(-c3ccc(C#N)cc3)cc2)C1 [Compound A40, N-{(1S,3R)-3-[3-(4′-cyano-biphenyl-4-yl)-[1,2,4]triazol-4-yl]-cyclopentyl}-propionamide]
< 300	CCC(=O)N[C@H]1CC[C@@H](n2cnnc2-c2ccc(-c3cccc4[nH]ncc34)cc2)C1 [Compound A42, N-((1S,3R)-3-{3-[4-(1H-indazol-4-yl)-phenyl]-[1,2,4]triazol-4-yl}-cyclopentyl)-propionamide]
< 300	CCC(=O)N[C@H]1CC[C@@H](n2cnnc2-c2ccc(-c3ccc4ncsc4c3)cc2)C1 [Compound A43, N-{(1S,3R)-3-[3-(4-benzothiazol-6-yl-phenyl)-[1,2,4]triazol-4-yl]-cyclopentyl}-propionamide]
< 300	CCC(=O)N[C@H]1CC[C@@H](n2cnnc2-c2ccc(-c3ccc4cc[nH]c4c3)cc2)C1 [Compound A44, N-((1S,3R)-3-{3-[4-(1H-indol-6-yl)-phenyl]-[1,2,4]triazol-4-yl}-cyclopentyl)-propionamide]
< 300	CCC(=O)N[C@H]1CC[C@@H](n2nncc2-c2ccc(-c3ccc(C#N)cc3)cc2)C1 [Compound A58, N-{(1S,3R)-3-[5-(4′-Cyano-biphenyl-4-yl)-[1,2,3]triazol-1-yl]-cyclopentyl}-propionamide]
< 300	CCC(=O)N[C@H]1CC[C@@H](n2nncc2-c2ccc(-c3ccc4cc[nH]c4c3)cc2)C1 [Compound A59, N-((1S,3R)-3-{5-[4-(1H-Indol-6-yl)-phenyl]-[1,2,3]triazol-1-yl}-cyclopentyl)-propionamide]
